Laboratory results: patent EP3572468B1, “CYANINE DYES AND THEIR USAGE FOR IN VIVO STAINING OF MICROORGANISMS” (PHILIPPS-UNIVERSITÄT MARBURG, priority 2018, dated 2019)
“And” between values parts separate entries of the source, which are not always exact repeats. Equal entries are not always repeated.

How the values were obtained:
[1] = Molar extinction coefficient determination; format: physicochemical; conditions: in milli-Q water; absorbance maximum at 625 nm
Method: The concentration determination and measurement of full UV-Vis spectra were performed on a Tecan 20M at room temperature. The measurements were performed in a 1400 µL quarz cuvette with a pathlength of 1 cm in a volume of 1 mL.
For the accurate determination of our compounds 6-TramTO-3 the extinction coefficient was calculated. A specific amount (< 2.00 mg) of the compound was weighted on a Mettler Toledo XP6 and dissolved in a known amount of milli-Q water. Increasing amounts of such stock solution were added into a 1 mL cuvette filled with 1 ml of milli-Q water. The corresponding absorbance of each addition was measured on a Tecan Spark 20M at the maximum at 625 nm and without exceeding 10% of the initial volume. In all the cases the absorbance was between 0.1 and 1 AU. to be in concordance with Lambert-Beer law (equation E2). A = ε l c [formula]
In this equation (E2): A = absorbance of the solution; I = length of the cuvette; c = concentration; ε = molar extinction coefficient.
The lineal regression of the obtained absorbance measurements versus the concentrations of 6-TramTO-3 allowed us to obtain the molar extinction coefficient. These measurements were repeated three times independently i.e. from three different stock solutions. The mean extinction coefficient and the standard deviation of 6-TramTO-3 at a wavelength of 625 nm in milli-Q water was 59403 ±646 M^-1cm^-1.
The mean extinction coefficient and the standard deviation of 6-NH2TO-3 and 6-AzTO-3 were determined following the above described procedure. The extinction coefficient of 6-NH2TO-3 was determined in milli-Q water, whereas the extinction coefficient of 6-AzTO-3 was determined in DMSO due to its low aqueous solubility. […] For the spectrum of 6-AzTO-3 1% of DMSO was added for a better solubility. Fig. 20 and Fig. 21 show the linear regressions from the three independent measurements. Table 4 summarized the molar extinction coefficient obtained. Table 4: Determined mean extinction coefficients and standard deviations of 6-AzTO-3 in DMSO and 6-TramTO-3 and 6-NH2TO-3 in milli-Q water.

[2] = Fluorescence quantum yield, dye alone; format: physicochemical; conditions: dye alone, without dsDNACT; 10 mM Tris pH 7.6 and 50 mM KCI, 25°C; reference dye Alexa Fluor 647
Method: Fluorescence intensity values for the quantum yields were determined on an ISS PC1 spectrofluorometer with an ISS 11650 lamp connected to an ISS Simpson model 109 and an ISS 80011 photomulitplier connected to a MGW Lauda K2R D and an Amherst Scientific Corp. 7600F for cooling. A VWR Refrigerated Circ 1160S was connected for the cooling of the cuvette chamber. It was measured in a 1400 µL fluorescence cuvette of HellmaAnalytics (104F-QS) at 25°C using the following settings: increment: 2.0 nm; integration time: 1.0 s; excitation slit width: 0.25 mm; emission slit width: 0.5 mm; excitation wavelength 590 nm. The emission spectra were recorded from 610 to 750 nm. From all spectra the corresponding background signal was substracted. Absorbance values were measured on a Jasco V-650 UV-Vis Spectrophotometer equipped with a Jasco PAC-743 temperature controlled cell holder and a Julabo F250 cooling system. UV-Vis titration measurements were performed in a 1400 µL quarz cuvette with a pathlength of 1 cm at 25°C using the following settings: increment: 1.0 nm; bandwidth: 1.0 nm; scanning speed: 1000 nm/min; scanning mode: continuous. From all values, the corresponding background signal was subtracted. The values for the reference compounds were measured in duplicates, the ones for 6-TramTO-3 with and without dsDNACT in triplicates. The quantum yields of 6-TramTO-3 with (30 eq.) and without dsDNACT were determined in 10 mM Tris pH 7.6 and 50 mM KCI. All measurement were following the procedure of Horiba and using the equation E1: ΦX = ΦST ((GradX)/(GradST)) ((((ηX))^2)/(((ηST))^2)) [formula] where Φ = fluorescence quantum yield, η = refractive index of the used solvent, Grad = gradient from the plot of integrated fluorescence intensity vs. absorbance and the subscripts ST and X denote standard and tested sample. […]
Table 3: Determined slopes and corresponding quantum yields for the two reference compounds Alexa Flour® 647 and Atto 655 and for 6-TramTO-3 with and without dsDNACT.

[3] = target: dsDNAhGC (double-stranded DNA hairpin with the consensus sequence GGCCC); test: Fluorescence titration with hairpin dsDNAhGC, binding affinity by DynaFit; conditions: 1 µM dye in 10 mM Tris pH 7.6 and 50 mM KCI, 20°C, emission at 650 nm, 1:1 binding model, read-out: binding affinity (KD, apparent dissociation constant)
Method: Fluorescence measurements and tritations were performed on a Jasco FP-6500 spectrofluorometer equipped with a Thermo Haake WKL 26 water recirculator at 20°C. Unless otherwise noted, a 1400 µL fluorescence cuvette of HellmaAnalytics (104F-QS) was used and the measurements were performed with the following settings: increment: 1.0 nm; integration time: 0.2 s; speed: 500 nm/min; sensitivity: medium; excitation slit width: 3 nm; emission slit width: 3 nm; excitation wavelength 610 nm. The emission spectra were recorded from 625 to 750 nm at 20°C. From all spectra, the corresponding background signal was substracted. […] Table 1: Binding sites and sequences of DNA hairpins, which were used for fluorescence titrations experiments.
All fluorescence titrations followed the same procedure: to 1 mL of 1 µM solution of corresponding cyanine dye derivative in 10 mM Tris pH 7.6 and 50 mM KCI aliquots of a stock solution of the corresponding annealed DNA (dsDNAhAT and dsDNAhGC = 435 µM; dsDNACT = 0.65 mM) were successively added and the fluorescence spectra were recorded in a range from 625-750 nm after 1 min of each addition. […] The fluorescence emission plotted is the resulting mean of the three independent measurements. […]
All binding affinities were determined by fitting the obtained experimental data in the DynaFit 4.0 software. […]

Compound: CC[n+]1ccc(/C=C/C=C2\Sc3ccccc3N2CCCCCCn2cc(CN)nn2)c2ccccc21.[I-] [6-TramTO-3, 4-((1E,3Z)-3-(3-(6-(4-(aminomethyl)-1H-1,2,3-triazol-1-yl)hexyl)benzo[d]thiazol-2(3H)-ylidene)prop-1-en-1-yl)-1-ethylquinolin-1-ium iodide]
- mean extinction coefficient [1]: 59403 ± 646 M⁻¹ cm⁻¹
- quantum yield (ΦF) [2]: 0.005 and 0.0052
- Kd [3]: 104 ± 54 nM
